# Assay results taken from ChEMBL document CHEMBL1201862, “PubChem BioAssay data set” (2004).
# Calls of active or inactive are those of the source.
# Columns and labels:
# [1] = test system: HEK293; experiment: NOD1 signaling inhibitors, primary screen, cell-based, luminescence, uHTS (AID 1578); format: functional; details: Homo sapiens
# [2] = test system: HeLa; experiment: Cytotoxicity counterscreen assay for transcriptional activators of heat shock protein 70 (Hsp70). [Related pubchem assays: 1203, 1252 ]; format: functional; details: Homo sapiens;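 also: cells exposed to compound for 16 hours before readout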
# [3] = test system: HEK293; experiment: cells; format: functional, cell-based; details: Homo sapiens
# [4] = target: T1, Heat shock factor protein 1 (Mus musculus, UniProt P38532); experiment: inhibition of MG132-induced HSE-luciferase signal, confirmation, cell-based, NIH3T3, luminescence, dose retest (AID 2382); format: functional;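 also: NIH3T3 fibroblasts with HSF1-driven luciferase reporter stressed by proteasome inhibitor MG132; luminescence from HSF1-driven luciferase expression after 8 hours of MG132 stress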
# T1 sequence (P38532 whole entry): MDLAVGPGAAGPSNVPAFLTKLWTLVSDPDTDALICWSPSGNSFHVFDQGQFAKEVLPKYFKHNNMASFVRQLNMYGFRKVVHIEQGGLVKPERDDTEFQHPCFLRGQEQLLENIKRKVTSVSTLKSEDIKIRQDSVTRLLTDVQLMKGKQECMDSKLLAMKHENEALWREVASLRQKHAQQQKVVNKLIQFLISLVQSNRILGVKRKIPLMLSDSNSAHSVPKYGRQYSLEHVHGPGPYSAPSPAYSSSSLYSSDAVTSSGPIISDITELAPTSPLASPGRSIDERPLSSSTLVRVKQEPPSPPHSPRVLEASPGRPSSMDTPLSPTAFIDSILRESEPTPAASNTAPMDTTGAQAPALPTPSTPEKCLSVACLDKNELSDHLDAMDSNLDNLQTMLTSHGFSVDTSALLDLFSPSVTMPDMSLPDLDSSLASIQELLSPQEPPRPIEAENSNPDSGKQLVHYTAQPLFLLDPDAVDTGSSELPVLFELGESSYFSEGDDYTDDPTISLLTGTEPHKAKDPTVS
# [5] = test system: HEK293; experiment: cells; format: functional, cell-based; details: Homo sapiens; remark: listed apart in the source
# [6] = test system: HEK293; experiment: NOD2 signaling inhibitors in MDP-stimulated cells, cell-based, uHTS, luminescence (AID 2001); format: functional; details: Homo sapiens
# [7] = inhibitors of intracellular T. cruzi replication, confirmation, NIH3T3 host cells, beta-gal luminescence (AID 2044); format: functional, cell-based;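 also: intracellular parasites grown in NIH/3T3 mouse fibroblasts as host cells; luminescent beta-galactosidase reporter signal from transgenic T. cruzi replicating inside host cells; inhibitors lower the luminescence signal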
# [8] = growth suppression of PTEN-null colon cells, dose response, cell-based, HCT116 PTEN knockout (AID 1047); format: functional;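 also: HCT116 colon tumor cells with PTEN knocked out; cells exposed to compound for 60 hours before readout; potency for loss of cell viability measured by luminescence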
# [9] = cytotoxicity toward NIH3T3 fibroblasts, dose response, counter-screen, cell-based, ATP luminescence, mouse fibroblasts (AID 2010); format: functional;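 also: cells exposed to compound for about 90 hours before reading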
# [10] = growth suppression of beta-catenin-knockout colon cells, dose response, cell-based, HCT116, human colon tumor (AID 1045); format: functional;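 also: HCT116 colon tumor cells with beta catenin knocked out; cells exposed to compound for 60 hours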
# [11] = target: Sphingosine 1-phosphate receptor 4 (Homo sapiens, UniProt O95977); experiment: Fluorescence dose response cell-based high throughput screening assay for antagonists of the Sphingosine 1-Phosphate Receptor 4 (S1P4). [Related pubchem assays: 1524 (Confirmation in triplicates.), 1510 (Primary screen.)]; format: functional
# [12] = target: Sphingosine 1-phosphate receptor 1 (Homo sapiens, UniProt P21453); format: functional;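 also: Tango beta-arrestin reporter U2OS cells stimulated with S1P near its EC80; inhibitor potency meaning antagonism of receptor activation by the natural agonist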
# [13] = test system: INS1; experiment: beta cell apoptosis inhibitors, cytokine rescue, dose response, luminescence, retest (AID 449756); format: functional, cell-based; details: Rattus norvegicus;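 also: cell death triggered by IL-1 beta plus TNF-alpha plus IFN-gamma mixture; protective hits raise ATP signal compared with cytokine alone wells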
# [14] = target: Beta-2 adrenergic receptor (Homo sapiens, UniProt P07550); experiment: beta2AR agonists driving receptor internalization, dose response, cell-based, FAP fluorogen, flow cytometry, cherry pick 1 (AID 588763); format: functional
# [15] = Shn3 3'UTR reporter inhibitors, dose response, cell-based, Clone20 osteoblasts, firefly luciferase, cherry-picked (AID 624132); format: functional;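 also: firefly luciferase luminescence from reporter carrying the Shn3 3'UTR in osteoblasts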
# [16] = HepG2 cell cytotoxicity, dose response, cytotoxicity control for Shn3 inhibitor project, CellTiter-Glo, cherry-picked (AID 624134); format: functional, cell-based
# [17] = control 3'UTR Renilla luciferase suppression, dose response, counter-screen for Shn3 inhibitor project, cell-based, Clone20-Shn3RL, cherry-picked (AID 624133); format: functional
# [18] = target: Peroxisome proliferator-activated receptor gamma/Nuclear receptor coactivator 2 (Homo sapiens, UniProt P37231); format: functional;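 also: agonist potency for raising coactivator recruitment to the receptor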
# [19] = target: Peroxisome proliferator-activated receptor gamma/Nuclear receptor coactivator 1 (Homo sapiens, UniProt P37231); format: functional;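 also: agonist potency as compounds enhance coactivator SRC-1 recruitment to PPARgamma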
# [20] = target: Peroxisome proliferator-activated receptor gamma/Nuclear receptor coactivator 3 (Homo sapiens, UniProt P37231); format: functional;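 also: agonist potency for raising coactivator recruitment to the receptor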
# [21] = target: Large T antigen (Simian virus 40, UniProt P03070); format: functional, Betapolyomavirus macacae;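 also: Confirmatory-stage PubChem screen for compounds that inhibit SV40 T antigen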
# [22] = target: Induced myeloid leukemia cell differentiation protein Mcl-1 (Homo sapiens, UniProt Q07820); format: functional
# [23] = target: T2, Mannose-6-phosphate isomerase (Homo sapiens, UniProt P34949); experiment: human PMI inhibitors, high substrate, primary screen, biochemical, fluorescence intensity, high mannose 6-phosphate (AID 1220)
# T2 sequence (P34949 whole entry): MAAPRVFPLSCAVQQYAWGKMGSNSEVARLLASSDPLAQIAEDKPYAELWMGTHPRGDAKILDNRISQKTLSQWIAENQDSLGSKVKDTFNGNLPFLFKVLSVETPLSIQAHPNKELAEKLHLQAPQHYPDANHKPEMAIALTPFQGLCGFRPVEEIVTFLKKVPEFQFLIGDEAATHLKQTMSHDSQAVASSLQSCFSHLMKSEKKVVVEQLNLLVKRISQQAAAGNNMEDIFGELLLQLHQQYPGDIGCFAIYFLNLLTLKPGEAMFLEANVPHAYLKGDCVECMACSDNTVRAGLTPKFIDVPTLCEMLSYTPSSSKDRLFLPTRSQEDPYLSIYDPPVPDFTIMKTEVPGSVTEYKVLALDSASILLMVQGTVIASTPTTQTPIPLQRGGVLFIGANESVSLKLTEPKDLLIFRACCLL
# [24] = target: T3, RNA-binding protein pos-1 (Caenorhabditis elegans, UniProt G5EF15); experiment: inhibitors of POS-1/mex-3 RNA binding, dose response, biochemical, fluorescence polarization (AID 1964);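 also: purified POS-1 fused to maltose binding protein made in E. coli; potency of compounds blocking POS-1 binding to fluorescent RNA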
# T3 sequence (G5EF15 whole entry): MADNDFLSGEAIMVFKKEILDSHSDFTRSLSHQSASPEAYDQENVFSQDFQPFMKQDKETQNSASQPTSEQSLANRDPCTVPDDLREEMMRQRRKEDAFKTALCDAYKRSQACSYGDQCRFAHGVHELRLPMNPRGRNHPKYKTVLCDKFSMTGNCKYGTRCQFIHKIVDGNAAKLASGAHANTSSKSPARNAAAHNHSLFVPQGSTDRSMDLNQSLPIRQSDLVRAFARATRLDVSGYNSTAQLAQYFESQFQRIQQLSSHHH
# [25] = target: T4, Zinc finger protein mex-5 (Caenorhabditis elegans, UniProt Q9XUB2); experiment: MEX-5/TCR-2 RNA interaction inhibitors, dose response, biochemical, C. elegans, fluorescence polarization (AID 1960)
# T4 sequence (Q9XUB2 whole entry): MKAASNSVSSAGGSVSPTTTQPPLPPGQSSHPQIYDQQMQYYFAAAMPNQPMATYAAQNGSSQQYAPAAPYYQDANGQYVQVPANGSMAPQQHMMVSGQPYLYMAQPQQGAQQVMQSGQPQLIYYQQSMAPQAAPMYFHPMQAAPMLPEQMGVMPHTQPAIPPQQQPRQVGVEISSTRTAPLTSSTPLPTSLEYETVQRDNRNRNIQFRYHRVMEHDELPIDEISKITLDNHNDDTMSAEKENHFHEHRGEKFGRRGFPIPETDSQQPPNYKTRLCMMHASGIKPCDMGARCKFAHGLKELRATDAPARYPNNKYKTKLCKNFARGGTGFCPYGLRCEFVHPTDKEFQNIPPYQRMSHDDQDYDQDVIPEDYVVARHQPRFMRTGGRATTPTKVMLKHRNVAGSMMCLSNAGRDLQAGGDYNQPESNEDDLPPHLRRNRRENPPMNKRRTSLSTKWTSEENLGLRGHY
# [26] = inhibitors of Bluetongue virus cytopathic effect, confirmation, arbovirus, BSR cells (AID 1250); format: functional;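 also: protection from viral cytopathic effect measured as cell viability by ATP luminescence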
# [27] = target: T5, Replicative DNA helicase DnaB (Mycobacterium tuberculosis, UniProt P9WMR3); experiment: DnaB intein splicing inhibitors, dose response, biochemical, cell-free fluorescence (AID 449749); format: functional
# T5 sequence (P9WMR3 whole entry): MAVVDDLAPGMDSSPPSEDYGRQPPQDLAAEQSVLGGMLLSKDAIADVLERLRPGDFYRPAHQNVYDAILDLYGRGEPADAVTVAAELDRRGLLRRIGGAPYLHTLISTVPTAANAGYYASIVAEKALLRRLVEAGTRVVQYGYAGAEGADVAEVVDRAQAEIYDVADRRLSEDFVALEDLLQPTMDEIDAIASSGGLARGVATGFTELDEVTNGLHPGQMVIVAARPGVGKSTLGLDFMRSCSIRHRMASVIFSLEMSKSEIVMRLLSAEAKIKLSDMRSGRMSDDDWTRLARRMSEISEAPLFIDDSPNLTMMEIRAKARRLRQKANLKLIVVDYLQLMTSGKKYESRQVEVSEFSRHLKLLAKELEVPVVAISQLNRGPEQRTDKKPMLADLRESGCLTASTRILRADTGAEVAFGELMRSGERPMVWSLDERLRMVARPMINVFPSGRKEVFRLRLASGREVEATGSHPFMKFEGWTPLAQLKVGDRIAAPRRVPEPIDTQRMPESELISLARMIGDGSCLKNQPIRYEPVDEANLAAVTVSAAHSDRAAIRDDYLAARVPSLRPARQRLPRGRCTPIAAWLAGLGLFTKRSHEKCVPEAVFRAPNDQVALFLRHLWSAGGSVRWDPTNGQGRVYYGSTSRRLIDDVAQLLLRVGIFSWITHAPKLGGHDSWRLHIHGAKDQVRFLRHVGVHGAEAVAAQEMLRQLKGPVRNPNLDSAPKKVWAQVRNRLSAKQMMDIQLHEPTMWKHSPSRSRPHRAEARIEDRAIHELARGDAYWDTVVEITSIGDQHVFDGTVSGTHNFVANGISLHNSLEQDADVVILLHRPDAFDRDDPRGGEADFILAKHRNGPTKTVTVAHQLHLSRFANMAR
# [28] = target: T6, Protein RecA (Mycobacterium tuberculosis, UniProt P9WHJ3); experiment: Fluorescence Cell-Free Homogeneous Dose Retest to Identify Inhibitors of RecA-Intein Splicing Activity. [Related pubchem assays (depositor defined):AID2097, AID2223, AID489010, AID492950]; format: functional
# T6 sequence (P9WHJ3 whole entry): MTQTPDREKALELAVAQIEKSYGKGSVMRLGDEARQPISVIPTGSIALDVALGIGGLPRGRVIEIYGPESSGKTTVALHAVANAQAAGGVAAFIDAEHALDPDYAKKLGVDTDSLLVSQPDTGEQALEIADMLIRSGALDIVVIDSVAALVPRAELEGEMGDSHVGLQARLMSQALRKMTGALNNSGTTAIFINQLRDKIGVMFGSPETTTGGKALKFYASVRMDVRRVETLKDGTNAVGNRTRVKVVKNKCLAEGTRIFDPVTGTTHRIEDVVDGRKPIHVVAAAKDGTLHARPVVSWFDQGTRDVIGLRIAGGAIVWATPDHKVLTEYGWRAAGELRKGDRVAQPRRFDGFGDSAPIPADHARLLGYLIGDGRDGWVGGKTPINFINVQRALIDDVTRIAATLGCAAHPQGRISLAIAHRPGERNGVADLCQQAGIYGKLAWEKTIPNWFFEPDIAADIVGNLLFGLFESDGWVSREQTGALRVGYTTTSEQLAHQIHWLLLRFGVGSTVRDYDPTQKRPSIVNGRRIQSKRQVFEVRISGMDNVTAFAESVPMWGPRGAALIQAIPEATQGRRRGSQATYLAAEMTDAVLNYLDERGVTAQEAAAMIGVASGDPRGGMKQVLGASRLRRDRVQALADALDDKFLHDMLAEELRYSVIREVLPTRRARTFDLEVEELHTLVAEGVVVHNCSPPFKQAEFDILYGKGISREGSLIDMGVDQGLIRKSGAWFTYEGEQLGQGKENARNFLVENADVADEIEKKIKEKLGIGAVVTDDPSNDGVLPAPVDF
# Sequence of Sphingosine 1-phosphate receptor 1 (P21453 whole entry): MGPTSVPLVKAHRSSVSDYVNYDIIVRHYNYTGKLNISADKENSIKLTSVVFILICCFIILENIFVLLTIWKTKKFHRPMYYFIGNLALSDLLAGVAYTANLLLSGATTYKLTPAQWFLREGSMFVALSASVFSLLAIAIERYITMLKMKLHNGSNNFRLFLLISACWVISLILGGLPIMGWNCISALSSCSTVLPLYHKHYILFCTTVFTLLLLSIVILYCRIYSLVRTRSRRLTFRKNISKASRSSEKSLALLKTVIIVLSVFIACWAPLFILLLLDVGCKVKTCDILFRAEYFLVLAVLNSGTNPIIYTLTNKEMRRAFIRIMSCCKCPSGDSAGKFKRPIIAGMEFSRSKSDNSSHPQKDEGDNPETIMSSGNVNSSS
# Sequence of Sphingosine 1-phosphate receptor 4 (O95977 whole entry): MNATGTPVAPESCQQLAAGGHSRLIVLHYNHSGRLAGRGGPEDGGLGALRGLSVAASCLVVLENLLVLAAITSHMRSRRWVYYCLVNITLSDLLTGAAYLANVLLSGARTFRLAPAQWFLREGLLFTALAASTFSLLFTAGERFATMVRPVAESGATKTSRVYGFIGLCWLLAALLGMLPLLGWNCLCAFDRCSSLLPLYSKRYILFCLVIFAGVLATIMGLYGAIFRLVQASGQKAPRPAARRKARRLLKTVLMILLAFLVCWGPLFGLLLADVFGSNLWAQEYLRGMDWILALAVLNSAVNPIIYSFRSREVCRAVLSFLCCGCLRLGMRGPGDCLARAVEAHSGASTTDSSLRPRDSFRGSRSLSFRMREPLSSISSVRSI
# Sequence of Peroxisome proliferator-activated receptor gamma/Nuclear receptor coactivator 3 (P37231 whole entry): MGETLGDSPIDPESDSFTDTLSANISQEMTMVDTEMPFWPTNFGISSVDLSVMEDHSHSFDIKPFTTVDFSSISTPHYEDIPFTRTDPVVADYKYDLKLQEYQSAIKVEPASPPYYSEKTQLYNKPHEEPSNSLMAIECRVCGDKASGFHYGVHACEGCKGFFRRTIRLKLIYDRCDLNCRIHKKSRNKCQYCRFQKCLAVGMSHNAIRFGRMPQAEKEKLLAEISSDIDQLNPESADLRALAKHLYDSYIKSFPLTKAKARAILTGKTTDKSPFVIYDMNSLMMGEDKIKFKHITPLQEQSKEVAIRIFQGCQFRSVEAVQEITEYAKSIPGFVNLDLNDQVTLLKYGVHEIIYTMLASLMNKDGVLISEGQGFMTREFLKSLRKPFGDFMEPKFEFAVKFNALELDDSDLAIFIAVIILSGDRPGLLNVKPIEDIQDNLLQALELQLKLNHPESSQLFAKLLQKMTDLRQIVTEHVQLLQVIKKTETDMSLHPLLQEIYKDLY
# Sequence of Peroxisome proliferator-activated receptor gamma/Nuclear receptor coactivator 3 (Q9Y6Q9 whole entry, further chain): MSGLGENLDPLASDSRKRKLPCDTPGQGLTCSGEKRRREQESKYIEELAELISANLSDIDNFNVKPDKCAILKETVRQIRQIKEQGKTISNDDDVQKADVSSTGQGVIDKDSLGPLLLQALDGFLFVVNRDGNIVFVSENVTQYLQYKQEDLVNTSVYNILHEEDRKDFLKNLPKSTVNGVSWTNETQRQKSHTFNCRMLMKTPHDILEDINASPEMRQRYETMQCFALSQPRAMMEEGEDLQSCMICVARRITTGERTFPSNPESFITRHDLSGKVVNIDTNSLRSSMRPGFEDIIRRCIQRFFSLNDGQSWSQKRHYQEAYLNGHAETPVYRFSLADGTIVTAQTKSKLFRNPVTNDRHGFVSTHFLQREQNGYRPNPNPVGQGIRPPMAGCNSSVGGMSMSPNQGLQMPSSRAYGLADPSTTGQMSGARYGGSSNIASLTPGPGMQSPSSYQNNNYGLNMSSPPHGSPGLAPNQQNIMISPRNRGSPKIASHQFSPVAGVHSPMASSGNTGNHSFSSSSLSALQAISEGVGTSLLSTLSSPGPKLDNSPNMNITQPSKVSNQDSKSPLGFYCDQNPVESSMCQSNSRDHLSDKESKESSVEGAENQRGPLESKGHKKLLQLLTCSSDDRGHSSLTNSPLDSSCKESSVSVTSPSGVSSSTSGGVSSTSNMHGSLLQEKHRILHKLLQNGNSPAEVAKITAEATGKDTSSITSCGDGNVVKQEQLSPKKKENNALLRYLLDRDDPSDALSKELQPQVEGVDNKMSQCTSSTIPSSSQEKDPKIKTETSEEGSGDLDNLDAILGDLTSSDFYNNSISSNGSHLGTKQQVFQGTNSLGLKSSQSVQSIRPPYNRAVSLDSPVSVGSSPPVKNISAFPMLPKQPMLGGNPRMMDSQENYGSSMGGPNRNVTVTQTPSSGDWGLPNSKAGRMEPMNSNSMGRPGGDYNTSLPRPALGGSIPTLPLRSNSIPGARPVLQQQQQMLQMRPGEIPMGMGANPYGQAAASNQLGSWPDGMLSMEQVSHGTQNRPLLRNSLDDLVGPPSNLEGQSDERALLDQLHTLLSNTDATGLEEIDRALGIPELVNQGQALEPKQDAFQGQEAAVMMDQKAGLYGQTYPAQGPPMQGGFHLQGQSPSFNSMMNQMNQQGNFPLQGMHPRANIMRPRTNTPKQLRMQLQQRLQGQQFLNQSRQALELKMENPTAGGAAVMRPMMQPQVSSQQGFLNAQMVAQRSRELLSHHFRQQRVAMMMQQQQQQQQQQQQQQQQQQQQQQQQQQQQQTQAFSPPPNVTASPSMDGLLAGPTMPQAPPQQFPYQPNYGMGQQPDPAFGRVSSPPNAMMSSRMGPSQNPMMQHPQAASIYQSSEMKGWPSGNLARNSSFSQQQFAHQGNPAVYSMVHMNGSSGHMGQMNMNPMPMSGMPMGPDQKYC
# Sequence of Peroxisome proliferator-activated receptor gamma/Nuclear receptor coactivator 2 (P37231 whole entry): as the sequence (P37231 whole entry) above
# Sequence of Peroxisome proliferator-activated receptor gamma/Nuclear receptor coactivator 2 (Q15596 whole entry, further chain): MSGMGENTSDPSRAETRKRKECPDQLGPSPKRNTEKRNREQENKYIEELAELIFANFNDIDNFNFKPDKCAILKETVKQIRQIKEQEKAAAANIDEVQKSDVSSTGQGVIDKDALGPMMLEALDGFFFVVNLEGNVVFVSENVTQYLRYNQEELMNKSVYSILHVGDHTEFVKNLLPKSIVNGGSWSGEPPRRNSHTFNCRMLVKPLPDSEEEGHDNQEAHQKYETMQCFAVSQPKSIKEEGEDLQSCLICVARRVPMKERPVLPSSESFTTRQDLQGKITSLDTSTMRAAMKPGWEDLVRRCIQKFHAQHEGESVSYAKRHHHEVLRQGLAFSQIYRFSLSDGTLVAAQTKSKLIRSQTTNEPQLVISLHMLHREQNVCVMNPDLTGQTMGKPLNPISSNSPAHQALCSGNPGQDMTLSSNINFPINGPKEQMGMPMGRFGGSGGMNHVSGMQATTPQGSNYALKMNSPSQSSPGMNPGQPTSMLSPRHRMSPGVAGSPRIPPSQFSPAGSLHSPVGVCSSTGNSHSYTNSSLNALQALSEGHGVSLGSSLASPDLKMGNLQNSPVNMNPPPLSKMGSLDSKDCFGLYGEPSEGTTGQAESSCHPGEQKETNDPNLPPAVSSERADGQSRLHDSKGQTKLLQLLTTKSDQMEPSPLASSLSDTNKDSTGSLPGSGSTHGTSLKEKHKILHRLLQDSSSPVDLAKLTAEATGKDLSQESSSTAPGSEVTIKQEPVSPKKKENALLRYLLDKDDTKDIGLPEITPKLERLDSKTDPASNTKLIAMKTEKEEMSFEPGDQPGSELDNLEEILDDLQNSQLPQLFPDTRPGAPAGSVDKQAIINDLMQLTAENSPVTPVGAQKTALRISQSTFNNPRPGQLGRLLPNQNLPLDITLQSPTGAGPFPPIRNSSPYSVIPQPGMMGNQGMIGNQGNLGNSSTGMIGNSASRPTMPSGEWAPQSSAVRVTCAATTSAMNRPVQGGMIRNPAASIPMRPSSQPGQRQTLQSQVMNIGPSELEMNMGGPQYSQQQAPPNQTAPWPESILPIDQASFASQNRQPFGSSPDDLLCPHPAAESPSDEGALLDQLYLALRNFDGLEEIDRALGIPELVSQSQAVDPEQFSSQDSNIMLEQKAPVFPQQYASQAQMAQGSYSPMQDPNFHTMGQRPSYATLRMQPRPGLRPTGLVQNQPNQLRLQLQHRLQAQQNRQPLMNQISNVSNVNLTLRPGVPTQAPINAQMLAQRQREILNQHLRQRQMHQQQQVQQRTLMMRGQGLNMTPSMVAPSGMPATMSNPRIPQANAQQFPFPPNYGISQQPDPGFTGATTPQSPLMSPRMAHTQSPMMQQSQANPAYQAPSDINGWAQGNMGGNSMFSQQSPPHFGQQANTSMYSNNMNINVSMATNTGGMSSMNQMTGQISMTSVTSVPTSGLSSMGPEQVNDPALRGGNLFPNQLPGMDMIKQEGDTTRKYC
# Sequence of Beta-2 adrenergic receptor (P07550 whole entry): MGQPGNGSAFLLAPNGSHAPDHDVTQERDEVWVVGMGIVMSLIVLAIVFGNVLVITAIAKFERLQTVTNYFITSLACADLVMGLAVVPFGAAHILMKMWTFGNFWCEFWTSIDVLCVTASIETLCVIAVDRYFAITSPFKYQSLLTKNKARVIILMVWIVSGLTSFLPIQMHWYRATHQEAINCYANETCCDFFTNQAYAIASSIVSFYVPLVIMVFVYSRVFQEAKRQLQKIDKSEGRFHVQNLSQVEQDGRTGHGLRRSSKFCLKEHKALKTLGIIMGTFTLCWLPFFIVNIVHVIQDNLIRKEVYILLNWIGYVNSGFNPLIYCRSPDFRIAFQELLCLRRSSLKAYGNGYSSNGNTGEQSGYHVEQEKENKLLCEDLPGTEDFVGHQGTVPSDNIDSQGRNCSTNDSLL
smiles,measurement,setting,value
Cc1ccc(-c2nc(NC(=O)c3nn(C)cc3[N+](=O)[O-])sc2C)cc1C,EC50,[1],9.93 µM (active)
same,CC50,[2],2.08 µM (active)
same,IC50,[3],6.72 µM (active)
same,EC50,[4],4.28 µM (inconclusive)
same,IC50,[5],17.7 µM (active)
same,IC50,[6],3.82 µM (active)
same,EC50,[7],2.7 µM (active)
same,EC50,[8],0.224 µM (active)
same,EC50,[9],4.71 µM (active)
same,EC50,[10],0.207 µM (active)
same,IC50,[11],1 µM (active)
same,IC50,[12],18.1 µM (not active)
same,AC50,[13],3.62 µM (active)
same,EC50,[14],64.1 µM (inactive)
same,AC50,[15],2.25 µM (active)
same,AC50,[16],18.2 µM (active)
same,AC50,[17],6.06 µM (active)
COc1ccc(N2CCC(CNC(=O)Nc3ccccc3)C2)cc1 (stereo not drawn),EC50,[18],> 79.4 µM (not active)
same,EC50,[19],> 79.4 µM (not active)
same,EC50,[20],> 79.4 µM (not active)
same,IC50,[21],10.6 µM (active)
same,IC50,[22],2.58 µM (active)
same,IC50,[23],> 50 µM (not active)
O=C1NC(=O)N(Cc2ccc(F)cc2)C(=O)/C1=C/NNC(=O)c1ccccc1O,EC50,[24],10.1 µM (active)
same,EC50,[25],9.33 µM (active)
same,IC50,[26],> 100 µM (active)
same,AC50,[27],6.55 µM (active)
same,EC50,[28],21.9 µM (active)
